One data set deals with HL-60 human leukaemia. Nature of the data set: Inhibition of tumor cell proliferation at 10 μM, Model A: MTT method. It is filed as cell-based. Conditions: HL-60, MTT method, read-out: Model A Inhibitory rate (%). The source says:
(§1) The evaluation of the compounds according to the present invention on the inhibition rate of the proliferation of four different tumor cells, using the routine method for anti-tumor activity tests in the pharmaceutical filed, for example the method described in the following literature: (J. Immuno/Method, 1983, 65, 55).
For orientation: Tetrazolium assays rely on reduction of a dye to a coloured formazan, in cell work by metabolically active cells.

The test system of data set [1] is BGC-823 human gastric cancer. Nature of the data set: Inhibition of tumor cell proliferation at 10 μM, Model B: SRB method. Conditions: BGC-823, SRB method, read-out: Model B Inhibitory rate (%). It is filed as cell-based.
Description: as §1

In data set [2] the test system is Bel-7402 human liver cancer. The data set is described as follows: Inhibition of tumor cell proliferation at 10 μM, Model C: SRB method. It counts as cell-based. Conditions: Bel-7402, SRB method, read-out: Model C Inhibitory rate (%).
Description: as §1

Data set [3] relates to KB human nasopharyngeal cancer. Nature of the data set: Inhibition of tumor cell proliferation at 10 μM, Model D: SRB method. It counts as cell-based. The note with it: read-out: Model D Inhibitory rate (%).
Description: as §1
Background: Sulforhodamine B stains cellular protein and so reports cell mass.

For data set [4], the system named is human leukaemia HL-60 cells. Nature of the data set: EC50 on proliferation of HL-60 cells (MTT, 48 h). It is filed as cell-based. The note with it: read-out: HL-60 EC50 (nmol). The protocol: (§2) EC50 values of the compounds according to the present invention on the proliferation of human leukaemia HL-60 cells and Bel-7402 cells were determined by using the following method, and the results are shown in Table 2.
Testing method for EC50 values on the human leukaemia HL-60 cells: The human leukaemia HL-60 cells were cultured in vitro. The cells were collected after growth to logarithmic phase, and centrifugated at 1000 rpm for 5 min. The supernatant was discarded and the cells were suspended in an appropriate amount of medium. The cell concentration was adjusted to 1.2×10^4/mL. The cells were seeded into 96-well culture plates in 90 μL per well. For each well of the drug treatment groups, 10 μL of medium-diluted drug was added, whereas for the blank control groups, the same amount of medium was added. Every testing drug was set up for three parallel wells, and also three control wells with only testing drugs (without cell) were set up. Negative control groups were medium containing 0.5% DMSO. After the plate was incubated in an incubator for 48 h, 10 μL of 5 mg/mL MTT was added into each well, and then the plate was placed for 3 h at 37° C. 100 μL of ternary solution (5% SDS, 10 mM HCl, 5% isopropanol) was added into each well, and the plate was kept at 37° C. overnight. The absorbance (OD) was measured at 595 nm/620 nm. The EC50 values were calculated by using Prism Graphpad statistical software.

Another data set concerns Bel-7402 cells. The data set is described as follows: EC50 on proliferation of Bel7402 cells (SRB, 48 h). It counts as cell-based. Conditions: Homo sapiens, read-out: Bel7402 EC50 (nmol). The protocol:
as §2
Testing method for ED50 values on the human Be17402ce11: After the cells were incubated with the addition of the drugs for 48 h, the plates were taken out. 50 μL of pre-cooled 500 g/L trichloroacetic acid was added into each well. The plates were kept in 4° C. refrigerator for 1 h after standing for 5 min, taken out, washed with deionized water for 5 times, and dried in the air. After the plates were completely dried, 100 μL of 0.4% SRB (formulated in 1% acetic acid) was added into each well. Following staining for 20 min, the staining solution was discarded, and the residue was washed with 1% acetic acid for 5 times to remove the uncombined dye. After being dried in the air, the residue was dissolved in 150 μL of 10 mmol/L unbuffered
Tris basic solution (pH=10.5), and oscillated in an oscillator for 5 min. The absorbance of each well at 490 nm was measured with TECAN enzyme mark instrument. The cells in background control plates were treated in the same way for measuring OD490. The EC50 values were calculated by using Prism Graphpad statistical software.

The test system of data set [5] is SK-BR-3 (cell line of erbB2 over-expression). The data set is described as follows: MTT assay on erbB2 over-expressing cell line (72 h). It is filed as cell-based. The note with it: Homo sapiens, read-out: SK-BR-3 (μM), EC50. The protocol: (§3) Experimental operations: Human breast cancer SK-BR-3, MDA-MB-468 cells and human colon cancer HCT 116 cells were cultured in vitro. The cells were collected after growth to logarithmic phase, and centrifugated at 1000 rpm for 5 min. The supernatant was discarded, and the cells were suspended with an appropriate amount of medium. The cell concentration was adjusted to 3.5×10^3/mL. Then the cells were seeded into 96-well culture plates in 100 μL per well, and placed in an incubator (37° C., 5% CO2) to be incubated for 24 h. The testing drugs were added, and the negative control group was added DMSO with the final concentration of 5%. Each group has three parallel wells. After being incubated in the incubator for 72 h, 20 μL of 5 mg/mL MTT was added into each well, and the plate was placed at 37° C. for 4 h. 200 μL of DMSO was added into each well, and then the plate was oscillated in an oscillator for 30 min. […] The EC50 values were calculated by using Prism Graphpad statistical software.

Data set [6] concerns MDA-MB-468 (cell line of EGFR over-expression). Nature of the data set: MTT assay on EGFR over-expressing cell line (72 h). It counts as cell-based. The note with it: Homo sapiens, read-out: MDA-MB-468 (μM), EC50. The protocol:
as §3

Data set [7] relates to HCT 116 (cell line of low-expression of both EGFR and erbB2). Nature of the data set: MTT assay on control cell line with low EGFR and erbB2 expression (72 h). It counts as cell-based. Conditions: Homo sapiens, read-out: HCT 116 (μM), EC50. The protocol:
as §3

Molecules are shown by their SMILES. Like-named read-outs stand apart in the source and are kept apart here.

Our source for the inhibition, melting point and EC50 values is patent publication US20130136794A1, “HETEROARYL (ALKYL) DITHIOCARBAMATE COMPOUNDS, PREPARATION METHODS AND USES THEREOF” (PEKING UNIVERSITY, priority 2010, published 2013).

The melting point is the temperature, or range, at which the solid turns liquid. What is called EC50 is the concentration needed to bring the measured effect to its halfway point.

In the case of `OC1CCSC(=S)N1Cc1ccco1` (centres unmarked) [Compound 1, 3-(furan-2-ylmethyl)-4-hydroxy-1,3-thiazinane-2-thione], the melting point fell in the range of 42 to 43 °C. Besides, the inhibition at 10 µM in the data set on HL-60 human leukaemia was 28.4%. The inhibition at 10 µM in data set [1] came out at 20%. Also, the inhibition at 10 µM in data set [2] is 43.1%. Further, the inhibition at 10 µM in data set [3] amounted to 20.1%.
For `COC(=O)CCSC(=S)NCc1ccco1` [Compound 2, 2-(methoxycarbonyl)ethyl(furan-2-ylmethyl)dithiocarbamate] the same measures were 50 to 52 °C, 19.3%, 16.4%, -1.69% and 3.8%.
For `CC1=CSC(=S)N(Cc2ccco2)C1(C)O` (centres unmarked) [Compound 4, 3-(furan-2-ylmethyl)-4-hydroxy-4,5-dimethyl-3,4-dihydro-2H-1,3-thiazine-2-thione] the same measures were 88 to 89 °C, 23.7%, 15.2%, 2.91% and 5.76%.
In the case of `C[S+]([O-])CCSC(=S)NCc1ccco1` (centres unmarked) [Compound 7, 2-(methylsulfinyl)ethyl(furan-2-ylmethyl)dithiocarbamate], the melting point is 43 to 45 °C. In addition, in the data set with HL-60 human leukaemia, the inhibition at 10 µM amounted to 11.2%. In [1], the inhibition at 10 µM was determined as 16%. For the same compound, the inhibition at 10 µM in data set [2] is -8.68%. In data set [3], the inhibition at 10 µM came out at 4.07%.
For `[O-][S+](CCSC(=S)NCc1ccco1)Cc1ccccc1` (centres unmarked) [Compound 8, 2-(benzylsulfinyl)ethyl(furan-2-ylmethyl)dithiocarbamate], in that order: 51 to 52 °C, 20.9%, 12.3%, 56.9% and 10.5%.
For `OC1CCSC(=S)N1Cc1cccnc1` (centres unmarked) [Compound 9, 4-hydroxy-3-(pyridin-3-ylmethyl)-1,3-thiazinane-2-thione] the same measures were 56 to 57 °C, 38.9%, 20.3%, 79.5% and 61.3%.
On to `COC(=O)CCSC(=S)NCc1cccnc1` [Compound 10, 2-(methoxycarbonyl)ethyl(pyridin-3-ylmethyl)dithiocarbamate], for which the inhibition at 10 µM is 61.9% in the data set on HL-60 human leukaemia, 72% in data set [1], 87.5% in data set [2] and 91.5% in [3].
In turn, `N#CCCSC(=S)NCc1cccnc1` [Compound 11, 2-cyanoethyl(pyridin-3-ylmethyl)dithiocarbamate] showed a melting point of 58 to 60 °C. Moreover, the inhibition at 10 µM with HL-60 human leukaemia amounted to 72.3%. Besides, in data set [1], the inhibition at 10 µM was found to be 60.4%. Moreover, the inhibition at 10 µM in data set [2] turned out to be 86.1%. The inhibition at 10 µM in data set [3] turned out to be 93.7%. In addition, in data set [4], the EC50 amounted to 0.00146 µM. Moreover, the EC50 in the data set with Bel-7402 cells turned out to be 0.0272 µM. Also, in [5] (SK-BR-3 cells, MTT, 72 h), the EC50 turned out to be 2.84 µM. For the same compound, the EC50 in [6] (MDA-MB-468 cells, MTT, 72 h) is 9.54 µM. In addition, in [7] (HCT 116 cells, MTT, 72 h), the concentration for a half-maximal effect (EC50) turned out to be 10.4 µM.
For `CC1=CSC(=S)N(Cc2cccnc2)C1(C)O` (centres unmarked) [Compound 12, 4-hydroxy-4,5-dimethyl-3-(pyridin-3-ylmethyl)-3,4-dihydro-2H-1,3-thiazine-2-thione], the melting point fell in the range of 71 to 72 °C. In the data set on HL-60 human leukaemia, the inhibition at 10 µM is 79.9%. The inhibition at 10 µM in [1] is 43.9%. Moreover, the inhibition at 10 µM in data set [2] came to 8.66%. For the same compound, the inhibition at 10 µM in data set [3] is 15.2%.
Consider `NS(=O)(=O)CCSC(=S)NCc1cccnc1` [Compound 13, 2-sulfamoylethyl(pyridin-3-ylmethyl)dithiocarbamate], for which the inhibition at 10 µM in the data set with HL-60 human leukaemia is -4.25%; in data set [1], 18.4%; in data set [2], 5.87%; in data set [3], 17.6%.
For the compound `OB(O)CCSC(=S)NCc1cccnc1` [Compound 14, 2-boronoethyl(pyridin-3-ylmethyl)dithiocarbamate], the melting point is 49 to 50 °C. Further, in the data set on HL-60 human leukaemia, the inhibition at 10 µM came to 41.4%. Moreover, in [1], the inhibition at 10 µM worked out at 68.6%. Moreover, the inhibition at 10 µM in data set [2] is 91%. Moreover, the inhibition at 10 µM in data set [3] came out at 94.5%.
With `C[S+]([O-])CCSC(=S)NCc1cccnc1` (centres unmarked) [Compound 15, 2-(methylsulfinyl)ethyl(pyridin-3-ylmethyl)dithiocarbamate], the inhibition at 10 µM in the data set on HL-60 human leukaemia is 26.1%; in data set [1], 9.95%; in [2], -2.37%; in data set [3], 3.58%.
As for `[O-][S+](CCSC(=S)NCc1cccnc1)Cc1ccccc1` (centres unmarked) [Compound 16, 2-(benzylsulfinyl)ethyl(pyridin-3-ylmethyl)dithiocarbamate], the inhibition at 10 µM came out at 26.1% with HL-60 human leukaemia, 72.3% in data set [1], 96.1% in [2] and 93.1% in [3]. Moreover, the concentration giving a half-maximal response (EC50) in [5] (SK-BR-3 cells, MTT, 72 h) was found to be 0.655 µM; in data set [6] (MDA-MB-468 cells, MTT, 72 h), 0.953 µM; in data set [7] (HCT 116 cells, MTT, 72 h), 16.2 µM.
Turning to `CCCCOC(=O)CCSC(=S)NCc1cccnc1` [Compound 47, 2-(butoxycarbonyl)ethyl (pyridin-3-ylmethyl)dithiocarbamate], the concentration for a half-maximal effect (EC50) in data set [4] came to 0.0254 µM; in the data set with Bel-7402 cells, 0.00636 µM; in data set [5] (SK-BR-3 cells, MTT, 72 h) it was 4.46 µM; in [6] (MDA-MB-468 cells, MTT, 72 h), 12.8 µM; in [7] (HCT 116 cells, MTT, 72 h) it was 7.83 µM.
Consider `CS(=O)(=O)CCNCc1ccc(-c2ccc3ncnc(Nc4ccc(OCc5cccc(F)c5)c(Cl)c4)c3c2)o1` [Lapatinib, reference compound], for which the 50% effective concentration (EC50) in [5] (SK-BR-3, 72 h) is 4.35 µM; in data set [6] (MDA-MB-468, 72 h), 19.6 µM; in [7] (HCT-116, 72 h), 42.4 µM.
